Results on ten compounds are retold here after ChEMBL document CHEMBL1212733, “Chemical genomics in Escherichia coli identifies an inhibitor of bacterial lipoprotein targeting” (Nat Chem Biol, 2009).

In brackets after ≈: the same amount, converted by molar mass. Activity calls are given as the source filed them. No cut-off for these calls is given here.

The test system of data set [1] is Escherichia coli. In words: Antibacterial activity against Escherichia coli K-12 MG1655 after 16 hrs by microbroth dilution method. In kind it is functional. Particulars: K-12 MG1655, 16 h. For orientation: Broth dilution looks for growth in wells or tubes with falling amounts of substance.
Data set [2] concerns Escherichia coli. In words: Antibacterial activity against Escherichia coli ATCC 25922 after 16 hrs by microbroth dilution method. In kind it is functional. Particulars: ATCC 25922, 16 h.
The test system of another data set is Pseudomonas aeruginosa. In words: Antibacterial activity against Pseudomonas aeruginosa PAO1 after 16 hrs by microbroth dilution method. In kind it is functional. Particulars: PAO1, 16 h.
Data set [3] deals with Stenotrophomonas maltophilia. As to the kind of experiment: Antibacterial activity against Stenotrophomonas maltophilia B22020 after 16 hrs by microbroth dilution method. In kind it is functional. Particulars: B22020, 16 h.
A further data set relates to Burkholderia cepacia. As to the kind of experiment: Antibacterial activity against Burkholderia cepacia B154408 after 16 hrs by microbroth dilution method. Particulars: B154408, 16 h. In kind it is functional.
The test system of another data set is Bacillus subtilis. In words: Antibacterial activity against Bacillus subtilis 168 after 16 hrs by microbroth dilution method. In kind it is functional. The settings on record: subsp. subtilis str. 168, 16 h.
For the next data set, the system named is Micrococcus luteus. In words: Antibacterial activity against Micrococcus luteus after 16 hrs by microbroth dilution method. In kind it is functional.
The next data set concerns Staphylococcus aureus. As to the kind of experiment: Antibacterial activity against Staphylococcus aureus after 16 hrs by microbroth dilution method. In kind it is functional.
The next data set relates to HeLa. As to the kind of experiment: Cytotoxicity against human HeLa cells after 24 hrs by Cell Titre-Glo luminescent assay. In kind it is cell-based.
Another data set relates to Candida albicans. In words: Antifungal activity against Candida albicans after 16 hrs by microbroth dilution method. In kind it is functional.
Data set [4] concerns the target Small ribosomal subunit protein bS18 (Escherichia coli (strain K12)) (UniProt P0A7T7). As to the kind of experiment: Inhibition of IPTG-stimulated Escherichia coli K-12 rpSR at 4 fold MIC by microarray analysis.
The target in data set [5] is tRNA threonylcarbamoyladenosine biosynthesis protein TsaE (Escherichia coli (strain K12)) (UniProt P0AF67). In words: Inhibition of IPTG-stimulated Escherichia coli K-12 yjeE at 4 fold MIC by microarray analysis.
In data set [6] the target is UDP-N-acetylglucosamine 1-carboxyvinyltransferase (Escherichia coli K-12) (UniProt P0A749). In words: Inhibition of IPTG-stimulated Escherichia coli K-12 murA at 4 fold MIC by microarray analysis.
Data set [7] concerns the target Multifunctional CCA protein (Escherichia coli (strain K12)) (UniProt P06961). In words: Inhibition of IPTG-stimulated Escherichia coli K-12 cca at 4 fold MIC by microarray analysis.
Data set [8] concerns the target D-alanine--D-alanine ligase B (Escherichia coli K-12) (UniProt P07862). As to the kind of experiment: Inhibition of IPTG-stimulated Escherichia coli K-12 ddlB at 4 fold MIC by microarray analysis.
Data set [9] has as its target T1, Uncharacterized protein YdiL (Escherichia coli (strain K12)) (UniProt P76196).
T1 sequence (whole entry): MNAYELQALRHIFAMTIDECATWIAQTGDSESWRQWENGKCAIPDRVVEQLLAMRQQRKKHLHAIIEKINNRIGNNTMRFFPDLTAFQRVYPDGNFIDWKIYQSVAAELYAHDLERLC
In words: Inhibition of IPTG-stimulated Escherichia coli K-12 ydiL at 16 fold MIC by microarray analysis.

The target of data set [10] is T2, Outer membrane protein TolC (Escherichia coli (strain K12)) (UniProt P02930).
T2 sequence (whole entry): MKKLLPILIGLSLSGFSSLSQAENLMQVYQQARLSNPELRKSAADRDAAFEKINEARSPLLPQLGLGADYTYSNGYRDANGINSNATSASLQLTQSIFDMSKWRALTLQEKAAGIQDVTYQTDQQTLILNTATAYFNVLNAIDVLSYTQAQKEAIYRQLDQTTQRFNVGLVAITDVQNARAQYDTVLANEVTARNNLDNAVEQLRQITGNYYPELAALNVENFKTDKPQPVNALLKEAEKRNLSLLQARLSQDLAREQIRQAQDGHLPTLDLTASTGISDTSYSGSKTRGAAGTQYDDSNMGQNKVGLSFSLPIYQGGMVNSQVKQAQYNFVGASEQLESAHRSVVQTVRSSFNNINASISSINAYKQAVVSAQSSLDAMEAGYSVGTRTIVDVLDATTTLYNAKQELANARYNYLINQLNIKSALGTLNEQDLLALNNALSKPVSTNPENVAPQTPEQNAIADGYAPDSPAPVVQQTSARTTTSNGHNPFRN
In words: Inhibition of IPTG-stimulated Escherichia coli K-12 tolC at 16 fold MIC by microarray analysis.

Data set [11] addresses T1, Uncharacterized protein YdiL (Escherichia coli (strain K12)). In words: Inhibition of IPTG-stimulated Escherichia coli K-12 ydiL at 8 fold MIC by microarray analysis.
Data set [12] has as its target T2, Outer membrane protein TolC (Escherichia coli (strain K12)). In words: Inhibition of IPTG-stimulated Escherichia coli K-12 tolC at 8 fold MIC by microarray analysis.
The target in data set [13] is Transcriptional regulatory protein BaeR (Escherichia coli (strain K12)) (UniProt P69228). As to the kind of experiment: Inhibition of IPTG-stimulated Escherichia coli K-12 baeR at 4 fold MIC by microarray analysis.
For data set [14], the target named is Protein YdfW (Escherichia coli (strain K12)) (UniProt P76164). As to the kind of experiment: Inhibition of IPTG-stimulated Escherichia coli K-12 ydfW at 4 fold MIC by microarray analysis.
The target in data set [15] is Glycerate 3-kinase (Escherichia coli (strain K12)) (UniProt P77364). As to the kind of experiment: Inhibition of IPTG-stimulated Escherichia coli K-12 glxK at 4 fold MIC by microarray analysis.
The target in data set [16] is Long-chain fatty acid transport protein (Escherichia coli (strain K12)) (UniProt P10384). In words: Inhibition of IPTG-stimulated Escherichia coli K-12 fadl at 4 fold MIC by microarray analysis.
For data set [17], the target named is Intermembrane phospholipid transport system binding protein MlaB (Escherichia coli (strain K12)) (UniProt P64602). In words: Inhibition of IPTG-stimulated Escherichia coli K-12 yrbB at 4 fold MIC by microarray analysis.
In data set [18] the target is 4-hydroxy-tetrahydrodipicolinate reductase (Escherichia coli (strain K12)) (UniProt P04036). In words: Inhibition of IPTG-stimulated Escherichia coli K-12 dapB at 4 fold MIC by microarray analysis.
The target in data set [19] is Thymidylate kinase (Escherichia coli (strain K12)) (UniProt P0A720). In words: Inhibition of IPTG-stimulated Escherichia coli K-12 tmk at 4 fold MIC by microarray analysis.
Data set [20] deals with UDP-N-acetylmuramoylalanine--D-glutamate ligase (Escherichia coli K-12) (UniProt P14900). As to the kind of experiment: Inhibition of IPTG-stimulated Escherichia coli K-12 murD at 4 fold MIC by microarray analysis.
Data set [21] addresses Phosphatidylglycerol--prolipoprotein diacylglyceryl transferase (Escherichia coli (strain K12)) (UniProt P60955). As to the kind of experiment: Inhibition of IPTG-stimulated Escherichia coli K-12 umpA at 4 fold MIC by microarray analysis.
In data set [22] the target is Cell shape-determining protein MreC (Escherichia coli (strain K12)) (UniProt P16926). As to the kind of experiment: Inhibition of IPTG-stimulated Escherichia coli K-12 mreC at 4 fold MIC by microarray analysis.
The target of data set [23] is Antitoxin YefM (Escherichia coli (strain K12)) (UniProt P69346). As to the kind of experiment: Inhibition of IPTG-stimulated Escherichia coli K-12 yefM at 4 fold MIC by microarray analysis.
For data set [24], the target named is Large ribosomal subunit protein uL2 (Escherichia coli (strain K12)) (UniProt P60422). As to the kind of experiment: Inhibition of IPTG-stimulated Escherichia coli K-12 rplB at 4 fold MIC by microarray analysis.
The target in data set [25] is tRNA(Ile)-lysidine synthase (Escherichia coli (strain K12)) (UniProt P52097). In words: Inhibition of IPTG-stimulated Escherichia coli K-12 mesJ at 4 fold MIC by microarray analysis.
The target in data set [26] is Cell division protein FtsX (Escherichia coli (strain K12)) (UniProt P0AC30). As to the kind of experiment: Inhibition of IPTG-stimulated Escherichia coli K-12 ftsX at 4 fold MIC by microarray analysis.
Data set [27] concerns the target Glutamyl-tRNA reductase (Escherichia coli (strain K12)) (UniProt P0A6X1). In words: Inhibition of IPTG-stimulated Escherichia coli K-12 hemA at 4 fold MIC by microarray analysis.
Data set [28] has as its target Large ribosomal subunit protein bL28 (Escherichia coli (strain K12)) (UniProt P0A7M2). As to the kind of experiment: Inhibition of IPTG-stimulated Escherichia coli K-12 rpmB at 4 fold MIC by microarray analysis.
Data set [29] has as its target T2, Outer membrane protein TolC (Escherichia coli (strain K12)). In words: Inhibition of IPTG-stimulated Escherichia coli K-12 tolC at 4 fold MIC by microarray analysis.

For orientation: MIC means the lowest concentration that inhibits growth of the organism. A higher MIC goes with a need for much substance.

Sequence of UDP-N-acetylglucosamine 1-carboxyvinyltransferase (Escherichia coli K-12) (P0A749 whole entry): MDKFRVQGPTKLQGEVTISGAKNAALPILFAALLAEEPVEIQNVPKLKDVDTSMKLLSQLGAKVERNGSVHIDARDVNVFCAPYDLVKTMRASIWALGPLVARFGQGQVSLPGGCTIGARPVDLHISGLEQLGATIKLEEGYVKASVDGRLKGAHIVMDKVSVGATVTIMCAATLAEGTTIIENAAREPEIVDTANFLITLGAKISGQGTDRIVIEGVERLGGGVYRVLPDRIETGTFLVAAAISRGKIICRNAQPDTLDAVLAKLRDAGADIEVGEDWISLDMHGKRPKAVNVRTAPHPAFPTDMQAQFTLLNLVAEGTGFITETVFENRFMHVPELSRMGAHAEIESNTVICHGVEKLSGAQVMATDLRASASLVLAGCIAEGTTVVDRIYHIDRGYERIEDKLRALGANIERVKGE
Sequence of Long-chain fatty acid transport protein (Escherichia coli (strain K12)) (P10384 whole entry): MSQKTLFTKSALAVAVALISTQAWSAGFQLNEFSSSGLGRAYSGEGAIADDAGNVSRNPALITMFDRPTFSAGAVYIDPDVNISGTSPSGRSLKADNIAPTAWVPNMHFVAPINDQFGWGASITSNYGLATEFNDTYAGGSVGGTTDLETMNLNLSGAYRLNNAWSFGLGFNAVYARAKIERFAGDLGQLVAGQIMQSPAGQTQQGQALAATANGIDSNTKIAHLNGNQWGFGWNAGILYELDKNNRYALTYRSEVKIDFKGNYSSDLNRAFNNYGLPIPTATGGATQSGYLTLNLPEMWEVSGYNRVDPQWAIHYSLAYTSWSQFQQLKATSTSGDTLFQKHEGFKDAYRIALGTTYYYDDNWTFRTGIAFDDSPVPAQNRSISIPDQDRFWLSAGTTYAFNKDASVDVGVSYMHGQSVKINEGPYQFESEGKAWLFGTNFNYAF
Sequence of Glycerate 3-kinase (Escherichia coli (strain K12)) (P77364 whole entry): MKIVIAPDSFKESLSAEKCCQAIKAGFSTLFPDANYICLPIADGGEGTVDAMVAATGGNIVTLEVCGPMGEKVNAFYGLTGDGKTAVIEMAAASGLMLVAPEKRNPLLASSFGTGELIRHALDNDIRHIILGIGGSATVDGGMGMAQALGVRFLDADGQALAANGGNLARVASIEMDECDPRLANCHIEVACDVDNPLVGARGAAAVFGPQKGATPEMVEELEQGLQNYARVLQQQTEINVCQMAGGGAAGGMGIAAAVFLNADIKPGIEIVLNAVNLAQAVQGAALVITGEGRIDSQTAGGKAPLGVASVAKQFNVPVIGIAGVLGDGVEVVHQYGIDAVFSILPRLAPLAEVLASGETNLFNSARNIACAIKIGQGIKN
Sequence of Transcriptional regulatory protein BaeR (Escherichia coli (strain K12)) (P69228 whole entry): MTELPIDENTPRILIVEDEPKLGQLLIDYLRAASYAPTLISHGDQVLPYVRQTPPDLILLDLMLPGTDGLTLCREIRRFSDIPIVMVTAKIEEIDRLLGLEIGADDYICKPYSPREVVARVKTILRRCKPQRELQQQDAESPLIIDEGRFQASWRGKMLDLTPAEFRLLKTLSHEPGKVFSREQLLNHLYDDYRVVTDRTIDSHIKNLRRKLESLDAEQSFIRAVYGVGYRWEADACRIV
Sequence of Phosphatidylglycerol--prolipoprotein diacylglyceryl transferase (Escherichia coli (strain K12)) (P60955 whole entry): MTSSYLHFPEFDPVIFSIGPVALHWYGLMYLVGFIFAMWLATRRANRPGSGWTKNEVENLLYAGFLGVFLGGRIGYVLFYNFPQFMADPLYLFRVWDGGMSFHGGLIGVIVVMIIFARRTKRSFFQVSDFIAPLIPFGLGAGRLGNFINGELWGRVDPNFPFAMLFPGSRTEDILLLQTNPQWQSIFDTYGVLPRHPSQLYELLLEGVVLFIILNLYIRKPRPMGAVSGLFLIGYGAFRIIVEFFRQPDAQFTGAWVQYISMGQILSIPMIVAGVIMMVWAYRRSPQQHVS
Sequence of Thymidylate kinase (Escherichia coli (strain K12)) (P0A720 whole entry): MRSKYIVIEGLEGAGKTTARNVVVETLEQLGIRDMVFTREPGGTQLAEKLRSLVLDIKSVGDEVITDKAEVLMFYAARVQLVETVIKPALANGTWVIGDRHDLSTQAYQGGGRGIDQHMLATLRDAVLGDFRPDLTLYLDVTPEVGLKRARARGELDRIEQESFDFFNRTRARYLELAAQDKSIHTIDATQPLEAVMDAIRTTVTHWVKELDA
Sequence of Intermembrane phospholipid transport system binding protein MlaB (Escherichia coli (strain K12)) (P64602 whole entry): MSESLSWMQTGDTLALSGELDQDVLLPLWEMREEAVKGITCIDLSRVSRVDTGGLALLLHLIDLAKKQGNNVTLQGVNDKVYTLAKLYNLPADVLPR
Sequence of tRNA(Ile)-lysidine synthase (Escherichia coli (strain K12)) (P52097 whole entry): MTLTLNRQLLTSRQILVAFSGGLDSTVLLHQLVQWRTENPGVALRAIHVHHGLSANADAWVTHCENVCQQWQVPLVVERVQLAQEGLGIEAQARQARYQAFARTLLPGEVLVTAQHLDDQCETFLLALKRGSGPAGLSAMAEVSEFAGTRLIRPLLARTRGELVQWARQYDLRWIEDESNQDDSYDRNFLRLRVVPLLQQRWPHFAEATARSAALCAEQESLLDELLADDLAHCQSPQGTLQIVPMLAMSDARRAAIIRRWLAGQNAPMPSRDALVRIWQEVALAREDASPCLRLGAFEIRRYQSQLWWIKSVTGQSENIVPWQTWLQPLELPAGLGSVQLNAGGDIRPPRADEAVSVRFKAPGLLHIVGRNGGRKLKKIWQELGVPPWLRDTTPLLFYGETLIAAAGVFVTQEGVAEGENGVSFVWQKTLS
Sequence of Cell division protein FtsX (Escherichia coli (strain K12)) (P0AC30 whole entry): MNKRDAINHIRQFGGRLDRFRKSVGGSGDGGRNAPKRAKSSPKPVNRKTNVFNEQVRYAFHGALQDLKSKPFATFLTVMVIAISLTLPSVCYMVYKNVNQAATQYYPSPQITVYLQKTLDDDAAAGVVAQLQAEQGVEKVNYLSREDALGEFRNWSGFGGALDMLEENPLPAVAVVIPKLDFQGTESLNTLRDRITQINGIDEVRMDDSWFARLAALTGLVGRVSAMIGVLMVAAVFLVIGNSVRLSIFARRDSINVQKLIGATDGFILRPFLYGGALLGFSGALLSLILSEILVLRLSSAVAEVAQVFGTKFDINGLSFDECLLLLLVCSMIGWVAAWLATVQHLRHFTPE
Sequence of 4-hydroxy-tetrahydrodipicolinate reductase (Escherichia coli (strain K12)) (P04036 whole entry): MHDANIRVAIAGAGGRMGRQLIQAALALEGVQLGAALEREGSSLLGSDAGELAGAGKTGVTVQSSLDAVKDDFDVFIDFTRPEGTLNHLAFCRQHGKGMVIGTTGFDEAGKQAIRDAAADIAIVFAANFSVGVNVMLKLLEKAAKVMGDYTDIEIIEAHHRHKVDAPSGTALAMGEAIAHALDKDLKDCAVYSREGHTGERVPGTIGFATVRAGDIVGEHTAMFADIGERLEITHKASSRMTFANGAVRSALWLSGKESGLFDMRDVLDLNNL
Sequence of Cell shape-determining protein MreC (Escherichia coli (strain K12)) (P16926 whole entry): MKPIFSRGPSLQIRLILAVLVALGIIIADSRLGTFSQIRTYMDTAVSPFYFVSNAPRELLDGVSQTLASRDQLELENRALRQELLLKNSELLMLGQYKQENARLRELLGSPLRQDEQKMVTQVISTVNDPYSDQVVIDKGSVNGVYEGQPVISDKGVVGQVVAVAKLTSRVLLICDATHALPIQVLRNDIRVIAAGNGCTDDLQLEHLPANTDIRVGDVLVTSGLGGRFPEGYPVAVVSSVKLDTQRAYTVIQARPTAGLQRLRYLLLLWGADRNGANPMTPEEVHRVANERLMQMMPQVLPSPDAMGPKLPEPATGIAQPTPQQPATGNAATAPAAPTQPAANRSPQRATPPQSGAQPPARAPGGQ
Sequence of Protein YdfW (Escherichia coli (strain K12)) (P76164 whole entry): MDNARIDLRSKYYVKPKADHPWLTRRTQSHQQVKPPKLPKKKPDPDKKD
Sequence of Antitoxin YefM (Escherichia coli (strain K12)) (P69346 whole entry): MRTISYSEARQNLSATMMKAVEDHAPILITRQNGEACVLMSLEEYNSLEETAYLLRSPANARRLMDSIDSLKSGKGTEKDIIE
Sequence of Glutamyl-tRNA reductase (Escherichia coli (strain K12)) (P0A6X1 whole entry): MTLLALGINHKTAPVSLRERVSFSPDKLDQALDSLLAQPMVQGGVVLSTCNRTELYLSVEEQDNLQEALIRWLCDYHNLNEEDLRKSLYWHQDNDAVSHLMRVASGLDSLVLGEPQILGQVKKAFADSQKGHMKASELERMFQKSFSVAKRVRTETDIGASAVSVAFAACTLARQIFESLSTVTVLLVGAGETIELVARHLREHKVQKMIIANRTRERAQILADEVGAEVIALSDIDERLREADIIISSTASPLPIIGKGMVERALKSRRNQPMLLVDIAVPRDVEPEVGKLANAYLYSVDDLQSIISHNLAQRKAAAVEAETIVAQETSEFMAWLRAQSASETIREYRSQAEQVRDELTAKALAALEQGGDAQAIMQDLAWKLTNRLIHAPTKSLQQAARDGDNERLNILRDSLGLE
Sequence of Multifunctional CCA protein (Escherichia coli (strain K12)) (P06961 whole entry): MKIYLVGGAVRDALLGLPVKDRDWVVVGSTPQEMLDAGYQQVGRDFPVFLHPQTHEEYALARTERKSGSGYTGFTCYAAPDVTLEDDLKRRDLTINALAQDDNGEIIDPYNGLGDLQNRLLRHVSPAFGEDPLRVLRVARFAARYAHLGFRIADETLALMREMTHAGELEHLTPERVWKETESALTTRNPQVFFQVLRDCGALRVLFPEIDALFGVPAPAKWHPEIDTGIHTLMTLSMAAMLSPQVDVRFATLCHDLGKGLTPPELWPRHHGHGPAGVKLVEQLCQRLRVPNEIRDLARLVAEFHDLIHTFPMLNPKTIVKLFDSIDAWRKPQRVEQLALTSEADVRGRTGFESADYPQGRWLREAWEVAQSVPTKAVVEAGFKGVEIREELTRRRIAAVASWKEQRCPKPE

`COc1ccc(CSC2=NCN(CCc3ccc(OC)c(OC)c3)CN2)cc1` yielded an MIC against Escherichia coli [1] of 512 mg/L (≈ 1280 µM).

With `COc1ccc(CCN2CN=C(SCc3ccccc3)NC2)cc1OC`, the MIC with Escherichia coli [1] was 256 mg/L (≈ 689 µM); in the data set on Escherichia coli [2] it was 8 mg/L (≈ 21.5 µM); in the data set on Pseudomonas aeruginosa, 32 mg/L (≈ 86.1 µM); in data set [3], 16 mg/L (≈ 43.1 µM); against Burkholderia cepacia, 128 mg/L (≈ 345 µM); with Bacillus subtilis, above 256 mg/L. For the same compound, the minimal inhibitory concentration (MIC) against Micrococcus luteus, against Staphylococcus aureus and with Candida albicans was above 256 mg/L throughout. In addition, the Activity in the data set on HeLa was above 256 µg/mL.

The compound `COc1ccc(CCN2CN=C(SCc3ccc(Cl)cc3)NC2)cc1` yielded an MIC with Escherichia coli [1] of 64 mg/L (≈ 170 µM).

On to `COc1cccc(CCN2CN=C(SCc3ccc(Cl)cc3)NC2)c1`, for which the minimal inhibitory concentration (MIC) in the data set with Escherichia coli [1] is 16 mg/L (≈ 42.6 µM).

Take `CN1CN=C(SCc2ccc(Cl)cc2)NC1`: the MIC against Escherichia coli [1] is 8 mg/L (≈ 31.3 µM); in the data set with Escherichia coli [2] it was 256 mg/L (≈ 1000 µM); with Pseudomonas aeruginosa it was above 256 mg/L; in data set [3] it was above 256 mg/L; against Burkholderia cepacia, above 256 mg/L; in the data set with Bacillus subtilis, above 256 mg/L. In addition, the MIC in the data set on Micrococcus luteus, in the data set with Staphylococcus aureus and with Candida albicans was above 256 mg/L throughout. The compound further gave an Activity in the data set on HeLa above 256 µg/mL.

Take `COc1cc(Cc2cnc(N)nc2N)cc(OC)c1OC`: the inhibition entry in data set [4] is “Active”.

For `Clc1ccc(CCN2CN=C(SCc3ccc(Cl)cc3)NC2)cc1`, it took 32 mg/L (≈ 84.1 µM) to inhibit growth in the data set on Escherichia coli [1] (MIC).

Take `O=CN(O)CCCP(=O)(O)O`: the inhibition entry in data set [5], in data set [6], in data set [7], in [8], in data set [9] and in data set [10] was “Active” throughout. The inhibition entry in data set [11], in data set [12], in data set [13], in data set [14], in [15] and in data set [16] was “Active” each time. The inhibition result in [17], in data set [18], in data set [19], in [20], in [21] and in data set [22] was “Active” each time. The inhibition entry in [23], in data set [24], in data set [25], in data set [26], in [27] and in data set [28] was “Active” in each case. Besides, the inhibition entry in data set [29] is “Active”.

Compound `COc1ccc(CCN2CN=C(SCc3ccc(Br)cc3)NC2)cc1OC` yielded a minimum inhibitory concentration (MIC) with Escherichia coli [1] of 8 mg/L (≈ 17.8 µM).

`COc1ccc(CCN2CN=C(SCc3ccc(I)cc3)NC2)cc1OC` came in with an MIC in the data set on Escherichia coli [1] of 256 mg/L (≈ 515 µM).
